Key:
Assay type in all cases: biochemical
JAK1 = JAK1 (Homo sapiens (Human), UniProt P23458); experiment: JAK Caliper Enzyme Assay at 1 mM ATP, JAK1
How it was run: (§1)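 IC50 (nM) derived from percent conversion of fluorescently labelled peptide, measured by Caliper LabChip mobility-shift separation after EDTA stop. Each JAK family kinase domain (human, recombinant) run at 1 mM ATP and room temperature, conditions set to 20-30% product; DMSO wells define uninhibited baseline.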

TYK2 = TYK2 (Homo sapiens (Human), UniProt P29597); experiment: JAK Caliper Enzyme Assay at 1 mM ATP, TYK2
TYK2, sequence (P29597 897-1176): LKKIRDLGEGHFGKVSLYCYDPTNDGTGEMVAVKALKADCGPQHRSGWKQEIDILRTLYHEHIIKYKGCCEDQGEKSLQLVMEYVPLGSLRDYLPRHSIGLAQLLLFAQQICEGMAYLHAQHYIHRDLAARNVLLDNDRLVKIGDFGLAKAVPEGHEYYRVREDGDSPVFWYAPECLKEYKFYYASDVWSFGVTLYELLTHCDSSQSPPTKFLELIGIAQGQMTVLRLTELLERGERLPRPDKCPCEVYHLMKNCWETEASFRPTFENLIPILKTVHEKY
How it was run: (§2)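 Read-out is Caliper LabChip mobility-shift separation of phosphorylated from unphosphorylated fluorescent peptide after EDTA termination. Each JAK kinase domain (human, recombinant) runs at 1 mM ATP at room temperature, adjusted for 20–30% turnover. Inhibition is normalized to DMSO and positive-control wells and plotted against concentration.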

JAK3 = JAK3 (Homo sapiens (Human), UniProt P52333); experiment: JAK Caliper Enzyme Assay at 1 mM ATP, JAK3
JAK3, sequence (P52333 822-1111): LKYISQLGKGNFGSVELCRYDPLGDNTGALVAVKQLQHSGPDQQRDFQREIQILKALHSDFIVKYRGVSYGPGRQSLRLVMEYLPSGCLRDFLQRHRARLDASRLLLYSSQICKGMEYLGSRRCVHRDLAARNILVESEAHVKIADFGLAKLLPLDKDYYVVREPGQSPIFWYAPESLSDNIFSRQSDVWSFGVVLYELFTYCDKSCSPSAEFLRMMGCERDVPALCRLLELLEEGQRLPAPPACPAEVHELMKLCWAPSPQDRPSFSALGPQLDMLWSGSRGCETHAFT
How it was run: as §1

JAK2 = JAK2 (Homo sapiens (Human), UniProt O60674); experiment: JAK Caliper Enzyme Assay at 1 mM ATP, JAK2
JAK2, sequence (O60674 849-1124): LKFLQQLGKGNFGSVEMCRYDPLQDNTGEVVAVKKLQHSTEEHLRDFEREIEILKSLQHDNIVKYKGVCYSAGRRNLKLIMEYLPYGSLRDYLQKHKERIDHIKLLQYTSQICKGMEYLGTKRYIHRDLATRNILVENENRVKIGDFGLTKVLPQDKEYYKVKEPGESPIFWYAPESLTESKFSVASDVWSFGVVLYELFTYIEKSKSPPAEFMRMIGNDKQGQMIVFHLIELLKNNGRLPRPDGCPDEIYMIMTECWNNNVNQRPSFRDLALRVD
How it was run: as §2

JAK1, sequence (P23458 875-1153): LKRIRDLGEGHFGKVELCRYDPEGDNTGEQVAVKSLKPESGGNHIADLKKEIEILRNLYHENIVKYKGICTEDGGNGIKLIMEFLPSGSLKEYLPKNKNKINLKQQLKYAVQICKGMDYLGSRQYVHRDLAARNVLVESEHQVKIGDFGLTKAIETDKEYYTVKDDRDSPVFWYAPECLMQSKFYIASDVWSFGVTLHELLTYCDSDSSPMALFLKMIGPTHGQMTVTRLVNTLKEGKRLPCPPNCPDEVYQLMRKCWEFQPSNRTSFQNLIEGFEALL

IC50 (JAK1) [nM] | IC50 (TYK2) [nM] | IC50 (JAK3) [nM] | IC50 (JAK2) [nM] | Compound
404 | 35 | > 10000 | 368 | CS(=O)(=O)N1CC(CC#N)(n2ccc(-c3nc(-c4cnn5ccccc45)cc4ncccc34)n2)C1 [Example 161, [1-(methylsulfonyl)-3-{3-[7-(pyrazolo[1,5-a]pyridin-3-yl)-1,6-naphthyridin-5-yl]-1H-pyrazol-1-yl}azetidin-3-yl]acetonitrile]
788 | 68 | > 10000 | 546 | CS(=O)(=O)N1CC(CC#N)(n2ccc(-c3nc(-c4ccc5nccn5c4)cc4ncccc34)n2)C1 [Example 162, [3-{3-[7-(imidazo[1,2-a]pyridin-6-yl)-1,6-naphthyridin-5-yl]-1H-pyrazol-1-yl}-1-(methylsulfonyl)azetidin-3-yl]acetonitrile]
4060 | 42 | > 10000 | 294 | CS(=O)(=O)N1CC(CC#N)(n2ccc(-c3nc(-c4ccn5ccnc5c4)cc4ncccc34)n2)C1 [Example 163, [3-{3-[7-(imidazo[1,2-a]pyridin-7-yl)-1,6-naphthyridin-5-yl]-1H-pyrazol-1-yl}-1-(methylsulfonyl)azetidin-3-yl]acetonitrile]
6570 | 235 | > 10000 | 4720 | Cn1cnc2cc(-c3cc4ncccc4c(-c4ccn(C5(CC#N)CN(S(C)(=O)=O)C5)n4)n3)cnc21 [Example 164, [3-{3-[7-(3-methyl-3H-imidazo[4,5-b]pyridin-6-yl)-1,6-naphthyridin-5-yl]-1H-pyrazol-1-yl}-1-(methylsulfonyl)azetidin-3-yl]acetonitrile]
> 10000 | 1390 | > 10000 | 9440 | CS(=O)(=O)N1CC(CC#N)(n2ccc(-c3nc(-c4cnc5nccn5c4)cc4ncccc34)n2)C1 [Example 165, [3-{3-[7-(imidazo[1,2-a]pyrimidin-6-yl)-1,6-naphthyridin-5-yl]-1H-pyrazol-1-yl}-1-(methylsulfonyl)azetidin-3-yl]acetonitrile]
7380 | 44 | > 10000 | 728 | CS(=O)(=O)N1CC(CC#N)(n2ccc(-c3nc(-c4cnc5cn[nH]c5c4)cc4ncccc34)n2)C1 [Example 166, [1-(methylsulfonyl)-3-{3-[7-(1H-pyrazolo[4,3-b]pyridin-6-yl)-1,6-naphthyridin-5-yl]-1H-pyrazol-1-yl}azetidin-3-yl]acetonitrile]
2730 | 129 | > 10000 | 1290 | N#CCC1(n2ccc(-c3nc(-c4ccc5nncn5c4)cc4ncccc34)n2)CN(CC(F)(F)F)C1 [Example 167, [3-{3-[7-([1,2,4]triazolo[4,3-a]pyridin-6-yl)-1,6-naphthyridin-5-yl]-1H-pyrazol-1-yl}-1-(2,2,2-trifluoroethyl)azetidin-3-yl]acetonitrile]
8820 | 592 | > 10000 | 6590 | CS(=O)(=O)N1CC(CC#N)(n2ccc(-c3nc(-c4cnn5cccnc45)cc4ncccc34)n2)C1 [Example 168, [1-(methylsulfonyl)-3-{3-[7-(pyrazolo[1,5-a]pyrimidin-3-yl)-1,6-naphthyridin-5-yl]-1H-pyrazol-1-yl}azetidin-3-yl]acetonitrile]
> 10000 | 22 | > 10000 | 241 | CS(=O)(=O)N1CC(CC#N)(n2ccc(-c3nc(-c4cnc5[nH]c(=O)[nH]c5c4)cc4ncccc34)n2)C1 [Example 169, [1-(methylsulfonyl)-3-{3-[7-(2-oxo-2,3-dihydro-1H-imidazo[4,5-b]pyridin-6-yl)-1,6-naphthyridin-5-yl]-1H-pyrazol-1-yl}azetidin-3-yl]acetonitrile]
